Experimental data: patent US20230285435A1, “COMPOSITIONS AND METHODS FOR TREATING VIRAL INFECTIONS” (priority 2020, published 2023)
Where a name gives a salt, the structure may show the parent alone.

Assays:
[1] = test system: SARS-CoV2 infected Vero-E6 cells and human lung epithelial cells (Calu-3); assay type: cell-based; parameters: inhibiting cytopathic effect (% of cells): dose or concentration left out as unconfirmed; settings: for synergy with remdesivir (BLISS independence model, synergyfinder): in combination with remdesivir, synergy score >10 signifies synergy; for efficacy of the agent alone, in words: single agent
[2] = test system: SARS-CoV2 in Calu-3 cells; assay type: cell-based

Molecule	synergy in combination with remdesivir [2]	other results
COC[C@H]1C[C@@H](c2nc(-c3ccc4c(c3)COc3cc5c(ccc6nc([C@@H]7CC[C@H](C)N7C(=O)[C@@H](NC(=O)OC)C(C)C)[nH]c65)cc3-4)c[nH]2)N(C(=O)[C@H](NC(=O)OC)c2ccccc2)C1 [Velpatasvir]		synergy with remdesivir (BLISS independence model, synergyfinder) [1]: strongest; efficacy of the agent alone, in words [1]: modest efficacy; inhibiting cytopathic effect (% of cells) ([1]; velpatasvir alone (so in the source)): 16%
COC(=O)N[C@H](C(=O)N1CC2(CC2)C[C@H]1c1ncc(-c2ccc3c(c2)C(F)(F)c2cc(-c4ccc5nc([C@@H]6[C@H]7CC[C@H](C7)N6C(=O)[C@@H](NC(=O)OC)C(C)C)[nH]c5c4)ccc2-3)[nH]1)C(C)C [Ledipasvir]	synergy	
COC(=O)N[C@H](C(=O)N1CCC[C@H]1c1ncc(-c2ccc(-c3ccc(-c4cnc([C@@H]5CCCN5C(=O)[C@@H](NC(=O)OC)C(C)C)[nH]4)cc3)cc2)[nH]1)C(C)C [Daclatasvir dihydrochloride]	synergy	
COc1c(C)c2c(c(O)c1C/C=C(\C)CCC(=O)O)C(=O)OC2 [Mycophenolic acid]	synergy	
COC(=O)N[C@H](C(=O)N1CCC[C@H]1C(=O)Nc1ccc([C@@H]2CC[C@@H](c3ccc(NC(=O)[C@@H]4CCCN4C(=O)[C@@H](NC(=O)OC)C(C)C)cc3)N2c2ccc(C(C)(C)C)cc2)cc1)C(C)C [Ombitasvir]	synergy	
CCC(CC)COC(=O)[C@H](C)N[P@](=O)(OC[C@H]1O[C@@](C#N)(c2ccc3c(N)ncnn23)[C@H](O)[C@@H]1O)Oc1ccccc1 [remdesivir]		preventing a virus-caused pathology (% of cells) ([1]; 300 nM remdesivir alone): 7%; efficacy of the agent alone, in words [1]: only active at high uM concentrations
Elbasvir		synergy with remdesivir (BLISS independence model, synergyfinder) [1]: synergistic
COC(=O)N[C@H](C(=O)N1CCC[C@H]1c1nc2cc([C@H]3CC[C@H](c4cc5nc([C@@H]6CCCN6C(=O)[C@@H](NC(=O)OC)[C@@H](C)OC)[nH]c5cc4F)N3c3cc(F)c(N4CCC(c5ccc(F)cc5)CC4)c(F)c3)c(F)cc2[nH]1)[C@@H](C)OC [Pibrentasvir]	synergy	
COC(=O)N[C@H](C(=O)N1CC2(CC2)C[C@H]1c1ncc(-c2ccc3c(c2)C(F)(F)c2cc(-c4ccc5nc(C6[C@H]7CC[C@H](C7)N6C(=O)[C@@H](NC(=O)OC)C(C)C)[nH]c5c4)ccc2-3)[nH]1)C(C)C (stereo partly drawn) [Ledipasvir acetone]	synergy	
